This is an account of results in ChEMBL document CHEMBL1201862, “PubChem BioAssay data set” (2004).

Test systems include BT-549; CAKI-1; EKVX; LOX IMVI; MDA-MB-435; MDA-N; NCI-H226; NCI/ADR-RES; OVCAR-3; OVCAR-4; SF-295; SF-539; SK-MEL-5; SN12C; SNB-75; SW-620; U-251; UACC-257; HCC 2998.
Common to all, as to test: NCI anticancer screen, dose series, 48 h

Each structure is given as a SMILES string.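 Following 48 hours of exposure in 96-well plates, responses at five concentrations were used to interpolate endpoints linearly. GI50 is the concentration that inhibits growth by half.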 Activity calls are given as the source filed them. No stated cut-off is given here; in the data, active = GI50 up to about 1.1 µM and inactive = higher.

`Oc1ccc(Cc2cc(Cl)cc(Cl)c2O)cc1Cl`: the GI50 was 18.8 µM (inactive) in the assay on BT-549; 22.6 µM (inactive) with CAKI-1; 19.4 µM (inactive) in the assay on EKVX; 16.6 µM (inactive) in the assay with LOX IMVI; 8.83 µM (inactive) in the assay on MDA-MB-435; 8.93 µM (inactive) in the assay with MDA-N. Moreover, the GI50 with NCI-H226 was 21.1 µM (inactive); with NCI/ADR-RES it was 18.3 µM (inactive); in the assay with OVCAR-3 it was 18.7 µM (inactive); in the assay on OVCAR-4, 23.3 µM (inactive); in the assay on SF-295, 19 µM (inactive); in the assay on SF-539, 17.1 µM (inactive). Also, the GI50 with SK-MEL-5 is 17.5 µM (inactive); with SN12C it was 15.1 µM (inactive); in the assay on SNB-75, < 0.01 µM (active); in the assay with SW-620, 16.6 µM (inactive); with U-251, 19.2 µM (inactive); in the assay on UACC-257, 15.9 µM (inactive).
Regarding `C1CNCCN2CCCNCCN(C1)CC2`, the GI50 with BT-549, in the assay with CAKI-1, in the assay with EKVX, in the assay with LOX IMVI, in the assay with MDA-MB-435 and with MDA-N was > 100 µM (inactive) throughout. For the same compound, the GI50 with NCI-H226, in the assay on NCI/ADR-RES, in the assay on OVCAR-3, in the assay with OVCAR-4, with SF-295 and in the assay on SF-539 was > 100 µM (inactive) in each case. Further, the GI50 with SK-MEL-5, with SN12C, in the assay on SNB-75, in the assay with SW-620, in the assay on U-251 and in the assay with UACC-257 was > 100 µM (inactive) each time.
Regarding `Cc1cc(Cc2cc(C)c(N)cc2N)c(N)cc1N`, the GI50 with BT-549 is > 100 µM (inactive); with CAKI-1 it was > 100 µM (inactive); in the assay on EKVX it was > 100 µM (inactive); with LOX IMVI, 81.5 µM (inactive); in the assay on MDA-MB-435, 99.3 µM (inactive); in the assay with MDA-N, > 100 µM (inactive). Further, the GI50 is > 100 µM (inactive) with NCI-H226; > 100 µM (inactive) in the assay on NCI/ADR-RES; > 100 µM (inactive) in the assay with OVCAR-3; > 100 µM (inactive) in the assay on OVCAR-4; > 100 µM (inactive) in the assay with SF-295; 80.2 µM (inactive) in the assay on SF-539. Moreover, the GI50 in the assay with SK-MEL-5, with SN12C, in the assay on SNB-75, in the assay on SW-620, with U-251 and in the assay on UACC-257 was > 100 µM (inactive) in each case.
In the case of `Cc1cc(C)c(S(=O)(=O)N(CCCN)OCCCON(CCCN)S(=O)(=O)c2c(C)cc(C)cc2C)c(C)c1`, the GI50 in the assay with BT-549 is 3.1 µM (inactive); with CAKI-1, 14.2 µM (inactive); with EKVX, 5.92 µM (inactive); with LOX IMVI it was 1.87 µM (inactive); in the assay on MDA-MB-435, 2.03 µM (inactive); in the assay on MDA-N it was 1.78 µM (inactive). For the same compound, the GI50 in the assay on NCI-H226 is 2.2 µM (inactive); with NCI/ADR-RES, 18.9 µM (inactive); with OVCAR-3, 2.03 µM (inactive); with OVCAR-4, 2.29 µM (inactive); in the assay with SF-295, 7.66 µM (inactive); in the assay with SF-539 it was 2.17 µM (inactive). Further, the GI50 is 4.55 µM (inactive) with SK-MEL-5; 3.91 µM (inactive) in the assay on SN12C; 1.86 µM (inactive) in the assay on SNB-75; 2.49 µM (inactive) with SW-620; 1.64 µM (inactive) in the assay on U-251; 1.82 µM (inactive) in the assay on UACC-257.
For the compound `COc1cc(/C=N/NC(=O)c2ccc(NC(C)=O)cc2OC)ccc1O`, the GI50 with BT-549 was > 100 µM (inactive); in the assay on CAKI-1 it was > 100 µM (inactive); in the assay on EKVX, 77.6 µM (inactive); in the assay with LOX IMVI, 47.4 µM (inactive); in the assay on MDA-MB-435 it was > 100 µM (inactive); in the assay on MDA-N, > 100 µM (inactive). Further, the GI50 in the assay with NCI-H226 is < 0.01 µM (active); in the assay with NCI/ADR-RES, > 100 µM (inactive); with OVCAR-3 it was > 100 µM (inactive); in the assay on OVCAR-4, > 100 µM (inactive); with SF-295 it was 55 µM (inactive); in the assay with SF-539 it was 39.2 µM (inactive). Further, the GI50 in the assay with SK-MEL-5 was > 100 µM (inactive); in the assay on SN12C, > 100 µM (inactive); with SNB-75, 26.7 µM (inactive); in the assay with SW-620 it was > 100 µM (inactive).
Regarding `O=S(=O)(O)c1cccc2ccc(O)c(/N=N\c3ccc(S(=O)(=O)c4ccc(/N=N/c5c(O)ccc6cccc(S(=O)(=O)O)c56)cc4)cc3)c12`, the GI50 with BT-549, with CAKI-1, in the assay on EKVX, in the assay with MDA-MB-435, in the assay on MDA-N and in the assay on NCI-H226 was > 100 µM (inactive) in each case. Further, the GI50 with NCI/ADR-RES, with OVCAR-3, with OVCAR-4, with SF-295, in the assay with SK-MEL-5 and with SN12C was > 100 µM (inactive) throughout. Further, the GI50 in the assay on SNB-75 is 65.5 µM (inactive); with SW-620 it was > 100 µM (inactive); in the assay on U-251, > 100 µM (inactive); with UACC-257, > 100 µM (inactive).
Regarding `CC(=O)Oc1c(OC(C)C)c(C)c(O[Si](C(C)C)(C(C)C)C(C)C)c2[nH]c3ccccc3c12`, the GI50 in the assay on BT-549 was > 100 µM (inactive); in the assay with CAKI-1, 67.1 µM (inactive); in the assay with EKVX, > 45 µM (inactive); in the assay with LOX IMVI, > 100 µM (inactive); in the assay on MDA-MB-435 it was > 42.2 µM (inactive); in the assay on MDA-N it was > 100 µM (inactive). Further, the GI50 is > 100 µM (inactive) with NCI-H226; > 100 µM (inactive) in the assay with NCI/ADR-RES; > 100 µM (inactive) with OVCAR-3; 57.8 µM (inactive) in the assay with OVCAR-4; 76.2 µM (inactive) in the assay on SF-295; > 100 µM (inactive) with SF-539. Also, the GI50 in the assay on SK-MEL-5 was > 100 µM (inactive); in the assay with SN12C, > 69 µM (inactive); in the assay on SNB-75, > 100 µM (inactive); with SW-620 it was > 83.4 µM (inactive); in the assay on U-251, 99.5 µM (inactive); with UACC-257 it was > 62.4 µM (inactive).
With `NC1(CCNC(=O)c2ccccc2)CCN(C(=O)c2ccccc2)CC1`, the GI50 with BT-549, in the assay on CAKI-1, in the assay with EKVX, in the assay with MDA-MB-435, in the assay with MDA-N and in the assay on NCI-H226 was > 100 µM (inactive) throughout. Also, the GI50 in the assay on NCI/ADR-RES was > 100 µM (inactive); in the assay on SF-295, > 100 µM (inactive); in the assay on SF-539 it was > 100 µM (inactive); in the assay with SK-MEL-5, > 100 µM (inactive); with SN12C, > 100 µM (inactive); in the assay on SNB-75 it was 0.548 µM (active). Also, the GI50 in the assay with SW-620, in the assay with U-251 and with UACC-257 was > 100 µM (inactive) each time.
Turning to `CCC1(C)NC(c2cnccn2)=NN1c1ccc(Cl)cc1` (stereo not drawn), the GI50 in the assay with BT-549 is > 100 µM (inactive); in the assay on CAKI-1, > 100 µM (inactive); with EKVX it was > 100 µM (inactive); in the assay on LOX IMVI, 35.9 µM (inactive); in the assay with MDA-MB-435, > 100 µM (inactive); in the assay with MDA-N, > 100 µM (inactive). Moreover, the GI50 in the assay with NCI-H226 was > 100 µM (inactive); in the assay on NCI/ADR-RES, > 100 µM (inactive); with OVCAR-3, 39.8 µM (inactive); with OVCAR-4 it was 63.2 µM (inactive); in the assay on SF-295 it was > 100 µM (inactive); with SF-539, > 100 µM (inactive). Further, the GI50 was > 100 µM (inactive) in the assay with SK-MEL-5; 29 µM (inactive) in the assay with SN12C; 19.3 µM (inactive) with SNB-75; 45.3 µM (inactive) with SW-620; 52.8 µM (inactive) in the assay with U-251; 21.9 µM (inactive) with UACC-257.
For `Cc1ccc(/N=N/C(=O)NNc2ccc(C)cc2Br)c(Br)c1`, the GI50 was 27.2 µM (inactive) in the assay on BT-549; 24.9 µM (inactive) with CAKI-1; 16.4 µM (inactive) with HCC 2998; 18 µM (inactive) with LOX IMVI; 30.5 µM (inactive) with MDA-MB-435; 19.3 µM (inactive) in the assay with MDA-N. The GI50 with NCI-H226 is 21.3 µM (inactive); in the assay with OVCAR-3, 19.9 µM (inactive); in the assay on OVCAR-4, 37.5 µM (inactive); with SK-MEL-5, 16.9 µM (inactive); in the assay with SN12C, 21.4 µM (inactive); with SNB-75 it was 40.8 µM (inactive). For the same compound, the GI50 was 32.7 µM (inactive) with SW-620, 16.1 µM (inactive) in the assay on U-251 and 26.8 µM (inactive) in the assay with UACC-257.
`COc1cc(/C=C/C(=O)CC(=O)/C=C/c2ccc(OC(=O)CCCCC3CCSS3)c(OC)c2)ccc1OC(=O)CCCCC1CCSS1` (stereo not drawn): the GI50 with BT-549, in the assay on EKVX, in the assay with LOX IMVI, in the assay on MDA-MB-435, in the assay on MDA-N and in the assay with NCI-H226 was > 100 µM (inactive) each time. Further, the GI50 in the assay with NCI/ADR-RES, in the assay on OVCAR-3, in the assay on OVCAR-4, in the assay on SF-295, in the assay with SF-539 and with SK-MEL-5 was > 100 µM (inactive) in each case. Also, the GI50 in the assay with SN12C, with SNB-75, with SW-620, in the assay with U-251 and in the assay with UACC-257 was > 100 µM (inactive) throughout.
On to `Nc1ccc(-c2nc3ccc(F)cc3s2)cc1`, for which the GI50 was 39.4 µM (inactive) in the assay with BT-549; 31.1 µM (inactive) in the assay with CAKI-1; 32 µM (inactive) in the assay with EKVX; 28.7 µM (inactive) with LOX IMVI; 25.9 µM (inactive) in the assay on MDA-MB-435; 39.4 µM (inactive) with MDA-N. The GI50 was 33.9 µM (inactive) with NCI/ADR-RES; 22.5 µM (inactive) with OVCAR-3; 25.5 µM (inactive) with SF-295; 36.4 µM (inactive) in the assay with SF-539; 15.3 µM (inactive) with SK-MEL-5; 33 µM (inactive) in the assay with SN12C. The GI50 is 31.5 µM (inactive) in the assay with SNB-75, 51.9 µM (inactive) in the assay with SW-620, 31.4 µM (inactive) in the assay on U-251 and 43.2 µM (inactive) in the assay with UACC-257.
